Experimental data reported in ChEMBL document CHEMBL6134930, “Discovery of AB801, a Potent and Selective Inhibitor of AXL Receptor Tyrosine Kinase for Use in Cancer Therapy” (J Med Chem, 2025).

Legend:
[1] = Metabolic stability in human hepatocytes assessed as intrinsic clearance measured per 10^6 cells; assay type: ADME, cell-based, Hepatocyte; settings: read-out: CLH
[2] = target: CYP2C9 (Homo sapiens, UniProt P11712); experiment: Time dependent inhibition of CYP2C9 (unknown origin) at 30 uM measured after 30 mins relative to control; assay type: ADME; settings: read-out: TDI
CYP2C9, sequence (P11712 whole entry): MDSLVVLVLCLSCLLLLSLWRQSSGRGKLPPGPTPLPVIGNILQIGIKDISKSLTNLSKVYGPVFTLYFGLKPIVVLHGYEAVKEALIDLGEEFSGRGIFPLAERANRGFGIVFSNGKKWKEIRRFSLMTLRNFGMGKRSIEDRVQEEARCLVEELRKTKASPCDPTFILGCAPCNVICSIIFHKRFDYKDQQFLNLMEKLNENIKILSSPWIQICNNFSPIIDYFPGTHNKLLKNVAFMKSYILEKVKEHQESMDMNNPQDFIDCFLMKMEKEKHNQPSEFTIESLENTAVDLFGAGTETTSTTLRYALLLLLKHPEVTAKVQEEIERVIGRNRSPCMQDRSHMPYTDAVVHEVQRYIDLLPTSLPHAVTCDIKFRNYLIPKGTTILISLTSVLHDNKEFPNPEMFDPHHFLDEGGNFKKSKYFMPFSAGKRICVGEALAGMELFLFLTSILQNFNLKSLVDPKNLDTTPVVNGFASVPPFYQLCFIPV

[3] = target: T1, CYP2B6 (Homo sapiens, UniProt P20813); experiment: Time dependent inhibition of CYP2B6 (unknown origin) at 30 uM measured after 30 mins relative to control; assay type: ADME; settings: read-out: TDI
T1 sequence (P20813 whole entry): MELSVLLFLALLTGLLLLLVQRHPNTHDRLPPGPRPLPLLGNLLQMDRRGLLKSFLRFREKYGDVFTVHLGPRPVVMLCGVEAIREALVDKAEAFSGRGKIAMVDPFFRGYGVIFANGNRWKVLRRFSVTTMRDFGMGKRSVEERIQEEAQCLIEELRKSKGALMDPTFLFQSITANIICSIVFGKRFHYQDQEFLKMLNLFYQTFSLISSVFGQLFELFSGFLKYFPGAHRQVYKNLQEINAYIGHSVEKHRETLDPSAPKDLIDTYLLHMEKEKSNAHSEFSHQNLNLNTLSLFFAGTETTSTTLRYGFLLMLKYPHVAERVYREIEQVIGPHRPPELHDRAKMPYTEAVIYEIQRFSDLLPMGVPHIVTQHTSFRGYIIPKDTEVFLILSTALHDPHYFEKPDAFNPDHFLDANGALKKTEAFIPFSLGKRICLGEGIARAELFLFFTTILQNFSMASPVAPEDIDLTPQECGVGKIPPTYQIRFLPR

[4] = AUCinf in Sprague-Dawley rat at 2 mg/kg, po measured up to 8 hrs by LC-MS/MS analysis; assay type: ADME, organism-based; settings: in vivo
[5] = Efflux ratio in human Caco-2 cells; assay type: ADME, cell-based
[6] = target: T2, CYP3A4 (Homo sapiens, UniProt P08684); experiment: Time dependent inhibition of CYP3A4 (unknown origin) using testosterone as substrate at 30 uM measured after 30 mins relative to control; assay type: ADME; settings: probe testosterone, read-out: TDI
T2 sequence (P08684 whole entry): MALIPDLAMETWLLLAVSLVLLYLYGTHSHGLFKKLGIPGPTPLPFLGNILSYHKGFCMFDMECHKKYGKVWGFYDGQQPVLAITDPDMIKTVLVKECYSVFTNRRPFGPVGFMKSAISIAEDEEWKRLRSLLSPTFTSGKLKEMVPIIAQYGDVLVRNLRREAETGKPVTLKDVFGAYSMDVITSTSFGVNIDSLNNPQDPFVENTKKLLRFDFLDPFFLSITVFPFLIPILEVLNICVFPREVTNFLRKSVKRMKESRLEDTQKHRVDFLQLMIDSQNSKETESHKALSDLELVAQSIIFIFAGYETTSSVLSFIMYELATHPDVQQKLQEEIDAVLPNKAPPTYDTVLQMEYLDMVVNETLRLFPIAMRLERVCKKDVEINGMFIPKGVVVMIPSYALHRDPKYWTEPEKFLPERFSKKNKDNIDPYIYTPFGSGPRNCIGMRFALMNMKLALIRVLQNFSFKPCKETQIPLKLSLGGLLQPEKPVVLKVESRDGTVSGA

[7] = target: T3, CYP1A2 (Homo sapiens, UniProt P05177); experiment: Time dependent inhibition of CYP1A2 (unknown origin) at 30 uM measured after 30 mins relative to control; assay type: ADME; settings: read-out: TDI
T3 sequence (P05177 whole entry): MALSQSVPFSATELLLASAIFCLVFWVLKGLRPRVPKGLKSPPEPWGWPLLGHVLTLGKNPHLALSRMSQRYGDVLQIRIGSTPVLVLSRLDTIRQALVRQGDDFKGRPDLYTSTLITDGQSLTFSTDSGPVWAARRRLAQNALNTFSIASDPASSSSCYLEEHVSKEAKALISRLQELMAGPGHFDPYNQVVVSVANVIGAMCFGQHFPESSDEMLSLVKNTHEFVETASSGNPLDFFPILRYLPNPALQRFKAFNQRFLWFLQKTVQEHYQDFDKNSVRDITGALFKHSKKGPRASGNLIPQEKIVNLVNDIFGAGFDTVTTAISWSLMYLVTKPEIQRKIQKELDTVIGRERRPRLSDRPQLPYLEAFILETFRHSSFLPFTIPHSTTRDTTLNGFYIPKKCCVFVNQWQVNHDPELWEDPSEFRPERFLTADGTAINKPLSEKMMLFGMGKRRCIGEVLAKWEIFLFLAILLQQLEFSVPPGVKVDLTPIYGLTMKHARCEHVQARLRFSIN

[8] = target: T4, Tyrosine-protein kinase receptor UFO (Homo sapiens, UniProt P30530); experiment: Inhibition of autophosphorylation AXL (unknown origin) expressed in HEK293 cells assessed as NanoLuc activity associated with phosphorylated proteins measured after 1 hr incubation by intracellular pAXL-ELISA; assay type: cell-based
T4 sequence (P30530 whole entry): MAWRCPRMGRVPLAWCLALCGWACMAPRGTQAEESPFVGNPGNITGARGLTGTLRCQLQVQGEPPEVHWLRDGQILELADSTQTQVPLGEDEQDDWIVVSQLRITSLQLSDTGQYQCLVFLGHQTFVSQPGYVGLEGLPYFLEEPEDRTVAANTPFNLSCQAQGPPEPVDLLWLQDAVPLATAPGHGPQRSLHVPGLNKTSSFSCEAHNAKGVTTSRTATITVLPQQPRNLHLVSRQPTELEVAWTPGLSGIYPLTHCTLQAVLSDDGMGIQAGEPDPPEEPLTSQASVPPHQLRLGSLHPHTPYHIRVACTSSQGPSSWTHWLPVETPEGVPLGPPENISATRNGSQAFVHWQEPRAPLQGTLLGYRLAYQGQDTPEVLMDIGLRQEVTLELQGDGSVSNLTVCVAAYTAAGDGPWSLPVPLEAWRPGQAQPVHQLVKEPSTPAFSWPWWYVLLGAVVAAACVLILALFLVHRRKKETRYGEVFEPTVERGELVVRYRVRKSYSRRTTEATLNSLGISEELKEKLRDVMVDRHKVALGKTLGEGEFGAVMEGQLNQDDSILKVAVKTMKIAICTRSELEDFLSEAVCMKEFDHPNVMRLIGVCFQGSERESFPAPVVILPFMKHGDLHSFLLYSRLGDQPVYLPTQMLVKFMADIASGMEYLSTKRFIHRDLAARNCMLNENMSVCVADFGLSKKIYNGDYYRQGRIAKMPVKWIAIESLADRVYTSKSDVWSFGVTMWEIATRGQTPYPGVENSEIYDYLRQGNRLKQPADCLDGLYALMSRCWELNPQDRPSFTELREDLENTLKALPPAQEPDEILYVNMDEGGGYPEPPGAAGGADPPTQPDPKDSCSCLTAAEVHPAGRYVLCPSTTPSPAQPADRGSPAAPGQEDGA

[9] = Clearance in cynomolgus monkey at 0.5 mg/kg, iv measured up to 24 hrs by LC-MS/MS analysis; assay type: ADME, organism-based, Macaca fascicularis; settings: in vivo
[10] = target: CYP2C19 (Homo sapiens, UniProt P33261); experiment: Time dependent inhibition of CYP2C19 (unknown origin) at 30 uM measured after 30 mins relative to control; assay type: ADME; settings: read-out: TDI
CYP2C19, sequence (P33261 whole entry): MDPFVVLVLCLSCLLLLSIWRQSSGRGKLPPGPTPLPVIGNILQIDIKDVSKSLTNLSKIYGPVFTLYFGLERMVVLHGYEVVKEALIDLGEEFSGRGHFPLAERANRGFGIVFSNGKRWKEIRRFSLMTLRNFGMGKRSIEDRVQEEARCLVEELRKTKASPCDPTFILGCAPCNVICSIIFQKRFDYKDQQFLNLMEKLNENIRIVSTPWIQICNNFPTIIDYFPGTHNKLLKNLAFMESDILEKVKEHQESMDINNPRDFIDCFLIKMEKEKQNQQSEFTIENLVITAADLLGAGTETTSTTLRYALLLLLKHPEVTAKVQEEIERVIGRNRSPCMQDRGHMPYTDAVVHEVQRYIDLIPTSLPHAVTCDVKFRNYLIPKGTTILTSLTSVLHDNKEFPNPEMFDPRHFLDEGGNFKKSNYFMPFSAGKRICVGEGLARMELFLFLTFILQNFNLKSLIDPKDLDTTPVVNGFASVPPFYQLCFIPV

[11] = target: T2, CYP3A4; experiment: Time dependent inhibition of CYP3A4 (unknown origin) using midazolam as substrate at 30 uM measured after 30 mins relative to control; assay type: ADME; settings: probe midazolam, read-out: TDI
[12] = target: hERG (KCNH2) (Homo sapiens, UniProt Q12809); experiment: Inhibition of hERG at 10 uM by high throughput cell based patch clamp assay; assay type: toxicity
hERG (KCNH2), sequence (Q12809 whole entry): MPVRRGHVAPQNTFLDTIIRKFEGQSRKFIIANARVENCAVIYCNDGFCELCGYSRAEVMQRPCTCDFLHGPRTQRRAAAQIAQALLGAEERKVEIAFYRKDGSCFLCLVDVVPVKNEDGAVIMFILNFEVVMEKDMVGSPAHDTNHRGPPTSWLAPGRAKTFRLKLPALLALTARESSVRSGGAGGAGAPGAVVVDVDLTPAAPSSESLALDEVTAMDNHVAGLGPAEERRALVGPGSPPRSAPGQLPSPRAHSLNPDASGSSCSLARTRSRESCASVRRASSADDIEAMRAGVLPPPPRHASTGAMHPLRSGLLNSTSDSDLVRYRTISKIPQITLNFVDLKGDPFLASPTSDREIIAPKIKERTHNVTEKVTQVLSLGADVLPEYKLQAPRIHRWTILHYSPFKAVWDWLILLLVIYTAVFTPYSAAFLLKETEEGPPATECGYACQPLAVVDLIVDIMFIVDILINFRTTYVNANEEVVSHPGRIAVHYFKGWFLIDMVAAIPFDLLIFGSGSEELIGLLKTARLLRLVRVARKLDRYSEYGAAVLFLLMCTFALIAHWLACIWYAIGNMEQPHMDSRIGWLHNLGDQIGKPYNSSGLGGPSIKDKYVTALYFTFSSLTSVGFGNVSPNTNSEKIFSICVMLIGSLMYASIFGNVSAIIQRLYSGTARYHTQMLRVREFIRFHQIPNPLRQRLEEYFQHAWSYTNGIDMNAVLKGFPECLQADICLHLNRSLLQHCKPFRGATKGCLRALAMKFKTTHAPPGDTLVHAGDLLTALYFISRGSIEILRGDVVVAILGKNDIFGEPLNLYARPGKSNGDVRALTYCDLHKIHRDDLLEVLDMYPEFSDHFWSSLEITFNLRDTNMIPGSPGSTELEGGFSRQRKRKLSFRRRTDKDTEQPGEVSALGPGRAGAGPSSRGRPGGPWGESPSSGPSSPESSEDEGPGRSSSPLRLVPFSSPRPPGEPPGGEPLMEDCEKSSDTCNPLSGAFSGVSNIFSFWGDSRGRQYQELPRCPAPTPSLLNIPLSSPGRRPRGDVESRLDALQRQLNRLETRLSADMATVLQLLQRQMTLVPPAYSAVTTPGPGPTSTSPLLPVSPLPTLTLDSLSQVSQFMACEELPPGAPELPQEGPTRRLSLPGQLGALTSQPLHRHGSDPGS

[13] = target: CYP2D6 (Homo sapiens, UniProt P10635); experiment: Time dependent inhibition of CYP2D6 (unknown origin) at 30 uM measured after 30 mins relative to control; assay type: ADME; settings: read-out: TDI
CYP2D6, sequence (P10635 whole entry): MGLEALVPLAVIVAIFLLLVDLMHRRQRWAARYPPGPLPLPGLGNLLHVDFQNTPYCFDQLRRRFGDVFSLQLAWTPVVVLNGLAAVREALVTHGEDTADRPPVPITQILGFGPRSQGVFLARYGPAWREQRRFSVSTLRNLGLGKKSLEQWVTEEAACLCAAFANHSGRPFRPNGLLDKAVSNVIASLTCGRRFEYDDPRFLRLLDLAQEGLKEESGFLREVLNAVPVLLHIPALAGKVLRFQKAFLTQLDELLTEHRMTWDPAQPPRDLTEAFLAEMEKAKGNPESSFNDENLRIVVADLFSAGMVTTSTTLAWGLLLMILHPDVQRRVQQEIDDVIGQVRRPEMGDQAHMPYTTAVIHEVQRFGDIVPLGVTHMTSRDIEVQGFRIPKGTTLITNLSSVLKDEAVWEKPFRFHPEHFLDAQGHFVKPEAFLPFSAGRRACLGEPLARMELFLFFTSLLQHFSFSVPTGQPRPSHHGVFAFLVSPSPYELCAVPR

[14] = Clearance in Beagle dog at 0.5 mg/kg, iv measured up to 24 hrs by LC-MS/MS analysis; assay type: ADME, organism-based, Canis lupus familiaris; settings: in vivo
[15] = Apparent permeability of compound from apical to basolateral side in human Caco-2 cells; assay type: ADME, cell-based; settings: read-out: permeability
[16] = Metabolic stability in rat hepatocytes assessed as intrinsic clearance measured per 10^6 cells; assay type: ADME, cell-based, Hepatocyte; settings: read-out: CLH
[17] = Clearance in CD-1 mouse at 0.5 mg/kg, iv measured up to 24 hrs by LC-MS/MS analysis; assay type: ADME, organism-based; settings: in vivo
[18] = target: T5, CYP2C8 (Homo sapiens, UniProt P10632); experiment: Time dependent inhibition of CYP2C8 (unknown origin) at 30 uM measured after 30 mins relative to control; assay type: ADME; settings: read-out: TDI
T5 sequence (P10632 whole entry): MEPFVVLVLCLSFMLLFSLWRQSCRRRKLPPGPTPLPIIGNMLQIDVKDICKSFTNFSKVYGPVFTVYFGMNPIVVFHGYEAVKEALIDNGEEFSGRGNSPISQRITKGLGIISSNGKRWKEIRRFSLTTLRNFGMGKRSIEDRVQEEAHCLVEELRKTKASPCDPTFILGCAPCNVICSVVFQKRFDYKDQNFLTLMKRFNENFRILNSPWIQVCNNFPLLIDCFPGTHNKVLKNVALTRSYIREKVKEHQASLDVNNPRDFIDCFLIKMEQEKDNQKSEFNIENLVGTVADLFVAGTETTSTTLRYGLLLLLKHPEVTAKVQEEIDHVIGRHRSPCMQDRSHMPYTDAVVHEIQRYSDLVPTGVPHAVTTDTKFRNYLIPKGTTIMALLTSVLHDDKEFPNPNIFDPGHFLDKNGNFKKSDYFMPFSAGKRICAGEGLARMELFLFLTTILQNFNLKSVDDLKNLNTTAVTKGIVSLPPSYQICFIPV

[19] = Clearance in Sprague-Dawley rat at 0.5 mg/kg, iv measured up to 24 hrs by LC-MS/MS analysis; assay type: ADME, organism-based; settings: in vivo
[20] = target: T4, Tyrosine-protein kinase receptor UFO; experiment: Inhibition of human AXL measured after 150 mins by ATP-competitive HTRF based biochemical assay

Q: Which results are given for `Cc1cccnc1-c1ccc(-c2n[nH]c3ncc(-c4ccc5c(c4)CC[C@@H](N4C6COCC4C6)CC5)cc23)cc1`?
A: hepatocyte CLint [1]: < 2.7 µL/min/1e6 cells; inhibition at 0.5 h, 30 µM [2]: 0%; inhibition at 0.5 h, 30 µM [3]: 22%; AUC(0-inf) [4]: 3000 ng·h/mL; efflux ratio [5]: 1; inhibition at 0.5 h, 30 µM [6]: 50%; inhibition at 0.5 h, 30 µM [7]: 24%; IC50 [8]: 0.065 µM; clearance [9]: 6.83 mL/min/kg; inhibition at 0.5 h, 30 µM [10]: 23%; inhibition at 0.5 h, 30 µM [11]: 31%; inhibition at 10 µM [12]: 23%; inhibition at 0.5 h, 30 µM [13]: 2.4%; clearance [14]: 25 mL/min/kg; Papp A→B [15]: 0.96 ×10⁻⁶ cm/s; hepatocyte CLint [16]: 2.7 µL/min/1e6 cells; clearance [17]: 5.33 mL/min/kg; inhibition at 0.5 h, 30 µM [18]: 14%; clearance [19]: 2.67 mL/min/kg; IC50 [20]: 0.0024 µM

Q: With `Cc1cccnc1-c1ccc(-c2c[nH]c3ncc(-c4ccc5c(c4)CC[C@@H](N4C6COCC4C6)CC5)cc23)cc1` as the compound, how does the hepatocyte CLint [1] read?
A: < 2.7 µL/min/1e6 cells

Q: What about the inhibition at 0.5 h, 30 µM [2] of the same compound?
A: 13%

Q: And the inhibition at 0.5 h, 30 µM [3]?
A: 14%

Q: And the AUC(0-inf) [4]?
A: 4800 ng·h/mL

Q: What about the efflux ratio [5] of the same compound?
A: 0.9

Q: What about the inhibition at 0.5 h, 30 µM [6] of the same compound?
A: 69%

Q: And the inhibition at 0.5 h, 30 µM [7]?
A: 0%

Q: And the IC50 [8]?
A: 0.067 µM

Q: And the clearance [9]?
A: 4.67 mL/min/kg

Q: What about the inhibition at 0.5 h, 30 µM [10] of the same compound?
A: 12%

Q: What about the inhibition at 0.5 h, 30 µM [11] of the same compound?
A: 58%

Q: And the inhibition at 10 µM [12]?
A: 40%

Q: And the inhibition at 0.5 h, 30 µM [13]?
A: 14%

Q: What about the clearance [14] of the same compound?
A: 11.8 mL/min/kg

Q: And the Papp A→B [15]?
A: 0.58 ×10⁻⁶ cm/s

Q: What about the hepatocyte CLint [16] of the same compound?
A: 5.4 µL/min/1e6 cells

Q: And the clearance [17]?
A: 3.33 mL/min/kg

Q: What about the inhibition at 0.5 h, 30 µM [18] of the same compound?
A: 0%

Q: And the clearance [19]?
A: 2.67 mL/min/kg

Q: What about the IC50 [20] of the same compound?
A: 0.00072 µM
